These results are taken from ChEMBL document CHEMBL3525961, “Identification of human UDP-glucuronosyltransferases involved in N-carbamoyl glucuronidation of lorcaserin” (Drug Metab Dispos, 2012).

For orientation: Km means the substrate concentration at which the rate is half of its maximum. As usually defined, the Vmax is the rate approached at saturating substrate.

Data set [1] concerns the target T1, UDP-glucuronosyltransferase 2B17 (Homo sapiens, UniProt O75795).
T1 sequence (O75795 whole entry): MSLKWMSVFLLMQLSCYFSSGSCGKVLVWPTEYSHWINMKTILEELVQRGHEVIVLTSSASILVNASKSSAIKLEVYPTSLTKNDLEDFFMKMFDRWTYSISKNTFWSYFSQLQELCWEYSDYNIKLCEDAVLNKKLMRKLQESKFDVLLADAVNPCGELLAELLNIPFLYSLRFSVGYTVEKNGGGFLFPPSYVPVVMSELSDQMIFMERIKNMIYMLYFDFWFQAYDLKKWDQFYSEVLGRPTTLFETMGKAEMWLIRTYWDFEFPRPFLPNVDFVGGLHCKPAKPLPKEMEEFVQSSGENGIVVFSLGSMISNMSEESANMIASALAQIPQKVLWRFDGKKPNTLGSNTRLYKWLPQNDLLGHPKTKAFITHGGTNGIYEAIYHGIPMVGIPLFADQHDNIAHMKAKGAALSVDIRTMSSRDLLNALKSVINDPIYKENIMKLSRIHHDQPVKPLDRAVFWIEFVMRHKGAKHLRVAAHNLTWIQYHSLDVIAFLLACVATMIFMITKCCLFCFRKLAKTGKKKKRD
In words: Activity of human recombinant UGT2B17 expressed in insect cells assessed as intrinsic clearance for enzyme-mediated N-carbamoyl glucuronide formation per mg protein. Type of data set: ADME.

For data set [2], the target named is T2, UDP-glucuronosyltransferase 2B7 (Homo sapiens, UniProt P16662).
T2 sequence (P16662 whole entry): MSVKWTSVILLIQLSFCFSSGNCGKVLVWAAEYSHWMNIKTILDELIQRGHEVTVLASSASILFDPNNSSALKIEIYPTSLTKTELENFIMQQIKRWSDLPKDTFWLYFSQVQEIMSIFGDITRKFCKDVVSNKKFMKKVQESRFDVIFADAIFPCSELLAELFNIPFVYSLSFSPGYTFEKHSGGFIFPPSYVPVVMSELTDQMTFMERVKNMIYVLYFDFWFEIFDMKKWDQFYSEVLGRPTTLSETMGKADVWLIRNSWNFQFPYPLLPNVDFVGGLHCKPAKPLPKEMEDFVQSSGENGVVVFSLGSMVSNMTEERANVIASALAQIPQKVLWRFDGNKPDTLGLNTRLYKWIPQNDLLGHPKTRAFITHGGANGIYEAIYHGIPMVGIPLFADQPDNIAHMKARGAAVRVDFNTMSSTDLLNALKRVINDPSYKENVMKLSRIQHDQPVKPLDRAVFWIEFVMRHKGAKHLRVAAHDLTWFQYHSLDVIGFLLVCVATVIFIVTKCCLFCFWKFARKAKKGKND
Description: Activity of human recombinant UGT2B7 expressed in insect cells assessed as intrinsic clearance for enzyme-mediated N-carbamoyl glucuronide formation. The class given is ADME.

For data set [3], the target named is T3, UDP-glucuronosyltransferase 1A6 (Homo sapiens, UniProt P19224).
T3 sequence (P19224 whole entry): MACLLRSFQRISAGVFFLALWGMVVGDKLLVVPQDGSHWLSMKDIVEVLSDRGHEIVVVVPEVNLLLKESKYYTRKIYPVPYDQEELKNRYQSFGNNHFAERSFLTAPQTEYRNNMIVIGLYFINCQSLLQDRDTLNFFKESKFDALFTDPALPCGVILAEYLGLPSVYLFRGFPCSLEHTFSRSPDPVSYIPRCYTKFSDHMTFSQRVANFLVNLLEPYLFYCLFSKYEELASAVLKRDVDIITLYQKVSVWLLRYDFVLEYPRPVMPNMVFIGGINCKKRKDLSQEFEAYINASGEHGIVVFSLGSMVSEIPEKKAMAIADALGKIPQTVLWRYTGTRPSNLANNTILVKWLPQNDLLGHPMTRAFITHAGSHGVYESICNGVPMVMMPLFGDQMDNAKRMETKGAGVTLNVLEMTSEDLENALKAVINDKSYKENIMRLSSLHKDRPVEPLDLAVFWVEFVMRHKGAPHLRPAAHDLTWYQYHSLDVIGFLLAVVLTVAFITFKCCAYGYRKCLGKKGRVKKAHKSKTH
Description: Activity of human recombinant UGT1A6 expressed in insect cells assessed as intrinsic clearance for enzyme-mediated N-carbamoyl glucuronide formation. Type of data set: ADME.

In data set [4] the target is T4, UDP-glucuronosyltransferase 2B15 (Homo sapiens, UniProt P54855).
T4 sequence (P54855 whole entry): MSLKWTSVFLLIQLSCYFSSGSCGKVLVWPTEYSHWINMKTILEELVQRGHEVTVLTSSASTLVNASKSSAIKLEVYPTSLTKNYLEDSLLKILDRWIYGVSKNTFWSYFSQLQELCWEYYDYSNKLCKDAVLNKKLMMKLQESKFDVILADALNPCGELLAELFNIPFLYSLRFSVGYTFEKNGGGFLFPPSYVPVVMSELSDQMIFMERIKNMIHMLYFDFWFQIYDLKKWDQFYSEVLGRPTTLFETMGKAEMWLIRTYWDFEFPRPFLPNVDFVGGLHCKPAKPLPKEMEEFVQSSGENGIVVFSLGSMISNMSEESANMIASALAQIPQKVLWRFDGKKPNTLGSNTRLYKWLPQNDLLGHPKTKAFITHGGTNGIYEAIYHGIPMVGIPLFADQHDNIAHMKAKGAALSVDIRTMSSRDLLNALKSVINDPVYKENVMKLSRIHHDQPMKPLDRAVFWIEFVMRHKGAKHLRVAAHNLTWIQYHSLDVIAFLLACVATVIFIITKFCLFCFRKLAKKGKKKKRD
Description: Activity of human recombinant UGT2B15 expressed in insect cells assessed as intrinsic clearance for enzyme-mediated N-carbamoyl glucuronide formation per mg protein. The class given is ADME.

Data set [5] can be described thus: Drug metabolism in non-smoking human lung assessed as N-carbamoyl glucuronide formation per mg protein at 100 uM. Type of data set: ADME, tissue-based.
The target of data set [6] is T4, UDP-glucuronosyltransferase 2B15. In words: Activity of human recombinant UGT2B15 expressed in insect cells assessed as intrinsic clearance for enzyme-mediated N-carbamoyl glucuronide formation. Type of data set: ADME.
Another data set relates to Liver. In words: Drug metabolism in human liver assessed as N-carbamoyl glucuronide formation per mg protein at 100 uM. Type of data set: ADME, tissue-based.
In data set [7] the test system is Liver microsome. In words: Drug metabolism in human liver microsomes assessed as 25 uM bisphenol-mediated inhibition of N-carbamoyl glucuronide formation at 100 uM. Type of data set: ADME. In general terms: Liver microsomes are a subcellular fraction often used to study metabolism.
Data set [8] can be described thus: Drug metabolism in smoking human lung assessed as N-carbamoyl glucuronide formation per mg protein at 100 uM. The class given is ADME, tissue-based.
For data set [9], the system named is Liver microsome. In words: Drug metabolism in human liver microsomes assessed as 100 uM eugenol-mediated inhibition of N-carbamoyl glucuronide formation at 1 uM. Type of data set: ADME.
In data set [10] the test system is Liver microsome. In words: Drug metabolism in human liver microsomes assessed as intrinsic clearance for N-carbamoyl glucuronide formation per mg protein. Type of data set: ADME.
The target in data set [11] is T5, UDP-glucuronosyltransferase 1A9 (Homo sapiens, UniProt O60656).
T5 sequence (O60656 whole entry): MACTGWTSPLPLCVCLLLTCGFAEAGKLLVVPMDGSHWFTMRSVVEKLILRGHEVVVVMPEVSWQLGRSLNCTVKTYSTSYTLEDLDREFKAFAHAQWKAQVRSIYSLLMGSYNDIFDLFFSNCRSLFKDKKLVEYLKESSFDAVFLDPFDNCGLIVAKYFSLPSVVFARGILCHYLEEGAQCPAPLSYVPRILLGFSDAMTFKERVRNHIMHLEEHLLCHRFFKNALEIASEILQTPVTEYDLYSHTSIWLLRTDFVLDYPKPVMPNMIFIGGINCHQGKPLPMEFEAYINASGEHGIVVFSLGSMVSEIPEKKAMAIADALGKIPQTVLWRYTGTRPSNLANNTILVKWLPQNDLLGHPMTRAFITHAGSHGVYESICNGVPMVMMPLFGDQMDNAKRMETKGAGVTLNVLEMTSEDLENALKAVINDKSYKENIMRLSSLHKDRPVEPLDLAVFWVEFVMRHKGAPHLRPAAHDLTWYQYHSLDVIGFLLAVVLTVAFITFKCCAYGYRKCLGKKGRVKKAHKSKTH
Description: Activity of human recombinant UGT1A9 expressed in insect cells assessed as intrinsic clearance for enzyme-mediated N-carbamoyl glucuronide formation. Type of data set: ADME.

Data set [12] relates to Liver microsome. Description: Drug metabolism in human liver microsomes assessed as N-carbamoyl glucuronide formation at 100 uM in presence of 5 uM mefenamic acid. The class given is ADME.
Data set [13] can be described thus: Drug metabolism in human intestine assessed as N-carbamoyl glucuronide formation per mg protein at 100 uM. Type of data set: ADME, tissue-based.
Data set [14] concerns Liver microsome. Description: Drug metabolism in human liver microsomes assessed as 100 uM eugenol-mediated inhibition of N-carbamoyl glucuronide formation at 100 uM. The class given is ADME.
For data set [15], the target named is T5, UDP-glucuronosyltransferase 1A9. Description: Activity of human recombinant UGT1A9 expressed in insect cells assessed as intrinsic clearance for enzyme-mediated N-carbamoyl glucuronide formation per mg protein. Type of data set: ADME.
For data set [16], the target named is T1, UDP-glucuronosyltransferase 2B17. Description: Activity of human recombinant UGT2B17 expressed in insect cells assessed as intrinsic clearance for enzyme-mediated N-carbamoyl glucuronide formation. Type of data set: ADME.
The target of data set [17] is T2, UDP-glucuronosyltransferase 2B7. Description: Activity of human recombinant UGT2B7 expressed in insect cells assessed as intrinsic clearance for enzyme-mediated N-carbamoyl glucuronide formation per mg protein. The class given is ADME.
The subject of data set [18] is Liver microsome. In words: Drug metabolism in human liver microsomes assessed as N-carbamoyl glucuronide formation. Type of data set: ADME.
Data set [19] concerns Liver microsome. In words: Drug metabolism in human liver microsomes assessed as N-carbamoyl glucuronide formation at 100 uM in presence of 5 uM bisphenol. The class given is ADME.
The nature of data set [20]: Drug metabolism in human kidney assessed as N-carbamoyl glucuronide formation per mg protein at 100 uM. The class given is ADME, tissue-based.
Data set [21] concerns Liver microsome. In words: Drug metabolism in human liver microsomes assessed as N-carbamoyl glucuronide formation at 100 uM in presence of 20 uM eugenol. The class given is ADME.
The subject of data set [22] is Liver microsome. In words: Drug metabolism in human liver microsomes assessed as N-carbamoyl glucuronide formation per mg protein. The class given is ADME.

Each structure is given as a SMILES string.

`C[C@H]1CNCCc2ccc(Cl)cc21.Cl.O`: the CL in data set [1] stood at 0.611 µL/min/g; in data set [4], 4.601 µL/min/g; in [15] it was 0.199 µL/min/g; in data set [17] it was 1.987 µL/min/g. In addition, the Drug metabolism entry was “metabolite_detected” in [2]; “metabolite_detected” in [3]; 0.493 pmol/min in [5]; “metabolite_detected” in data set [6]; 1028 pmol/min with Liver; 1.116 pmol/min in data set [8]. Besides, the Drug metabolism entry is given as “metabolite_detected” in data set [11]; “metabolite_detected” in the data set with Liver microsome [12]; 133.1 pmol/min in [13]; “metabolite_detected” in data set [16]; “metabolite_detected” in the data set on Liver microsome [19]; 185.9 pmol/min in [20]. The Drug metabolism result with Liver microsome [21] is “metabolite_detected”. The “inhibition (INH)” value in the data set on Liver microsome [7] stood at 30%; with Liver microsome [9] it was 18%; with Liver microsome [14] it was 11%. In addition, in the data set on Liver microsome [10], the CLH came to 18.57 µL/min/g. The Km with Liver microsome [18] worked out at 128 µM. In addition, the maximal velocity (Vmax) with Liver microsome [22] was found to be 2379.2 pmol/min.
